# Paper PMC3401594 (International Journal of Pharmaceutics, 2009)
# Values joined by “and” are separate entries in the source; they are usually repeats but may differ in a detail not shown here. Equal values may be shown once. Read-outs that look alike come from different tables or passages of the source. Marks after values point to notes of the source that are not given here.
# Columns and labels:
# recombinant human P-gp [1] = target: T1, recombinant human P-gp (Homo sapiens, UniProt P08183)
# [2] = tail-flick, hotplate and paraphenylquinone assays; ref DEC, NIDA; cited from earlier work
# μ receptor = conditions: read-out: Ki at μ receptor, as determined by DEC, NIDA, ref DEC; cited from earlier work
# [3] = mouse, in vivo
# [4] = system: P-gp (mdr1a/b) influence on antinociception; parameters: species or system mice; conditions: mouse, in vivo; for Influence of P-gp ablation on antinociceptive activity: sc
# [5] = ref Casy and Parfitt, 1986; cited from earlier work
# recombinant human P-gp [6] = target: T1, recombinant human P-gp; conditions: cited from earlier work
# [7] = 20 mg/kg, for 45 min in wild type mice; ref Thompson et al., 2000; cited from earlier work
# [8] = in vivo; cited from earlier work
# T1 sequence (P08183 whole entry): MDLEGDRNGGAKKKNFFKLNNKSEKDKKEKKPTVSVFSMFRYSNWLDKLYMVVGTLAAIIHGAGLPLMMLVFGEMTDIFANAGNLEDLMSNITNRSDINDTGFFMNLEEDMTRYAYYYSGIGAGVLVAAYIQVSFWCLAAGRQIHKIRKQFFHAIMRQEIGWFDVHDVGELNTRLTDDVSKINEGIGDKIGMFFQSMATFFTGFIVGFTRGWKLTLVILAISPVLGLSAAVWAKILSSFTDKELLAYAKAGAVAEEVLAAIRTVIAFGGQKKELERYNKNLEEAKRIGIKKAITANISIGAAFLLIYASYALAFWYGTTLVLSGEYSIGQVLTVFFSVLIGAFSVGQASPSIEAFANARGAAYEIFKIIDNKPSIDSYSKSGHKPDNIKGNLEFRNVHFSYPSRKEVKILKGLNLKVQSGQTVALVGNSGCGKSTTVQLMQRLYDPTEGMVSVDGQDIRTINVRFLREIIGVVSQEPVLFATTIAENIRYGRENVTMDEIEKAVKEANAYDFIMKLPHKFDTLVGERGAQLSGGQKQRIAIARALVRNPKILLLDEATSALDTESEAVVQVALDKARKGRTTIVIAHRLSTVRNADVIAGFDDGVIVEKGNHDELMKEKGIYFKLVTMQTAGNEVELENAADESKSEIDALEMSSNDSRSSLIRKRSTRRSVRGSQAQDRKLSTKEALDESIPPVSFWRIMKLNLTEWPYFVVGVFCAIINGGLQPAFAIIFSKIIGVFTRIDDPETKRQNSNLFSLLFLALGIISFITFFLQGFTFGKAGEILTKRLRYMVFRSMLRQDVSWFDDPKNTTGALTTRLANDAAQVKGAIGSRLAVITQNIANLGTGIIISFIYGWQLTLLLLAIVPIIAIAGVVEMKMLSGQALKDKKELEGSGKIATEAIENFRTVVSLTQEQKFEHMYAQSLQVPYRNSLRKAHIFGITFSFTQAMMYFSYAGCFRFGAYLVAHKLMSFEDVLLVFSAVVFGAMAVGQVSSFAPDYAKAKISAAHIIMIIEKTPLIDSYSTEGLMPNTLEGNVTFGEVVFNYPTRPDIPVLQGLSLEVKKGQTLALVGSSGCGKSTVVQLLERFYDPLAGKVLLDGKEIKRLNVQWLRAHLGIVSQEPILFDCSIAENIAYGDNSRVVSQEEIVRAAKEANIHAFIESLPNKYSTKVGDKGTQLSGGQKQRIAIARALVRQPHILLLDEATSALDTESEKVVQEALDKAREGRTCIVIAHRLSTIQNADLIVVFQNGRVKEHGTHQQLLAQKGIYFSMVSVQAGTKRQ
compound,measurement,setting,value
COc1ccc2c3c1O[C@H]1CC=C[C@H]4[C@@H](C2)N(C)CC[C@]314 [6-Desoxycodeine],P-gp affinity status from P-gp ATPase assay,recombinant human P-gp [1],not to be P-gp substrates
same,Fold stimulation of basal P-gp-ATPase activity,recombinant human P-gp [1]; human,1.31 ± 0.15 fold
CN1CC[C@]23c4c5ccc(O)c4O[C@H]2CC=C[C@H]3[C@H]1C5 [6-Desoxymorphine],P-gp affinity status from P-gp ATPase assay,recombinant human P-gp [1],not to be P-gp substrates
same,Fold stimulation of basal P-gp-ATPase activity,recombinant human P-gp [1]; human,1.01 ± 0.11 fold
same,Potency relative to morphine (times as potent),[2],~ 10 times
same,Ki,μ receptor,2.9 nM
same,Signs of toxicity,[3],no apparent toxicity
same,AUEC ratio mdr1a/b (−/−)/mdr1a/b (+/+),[4],1.14 ± 1.08 and 1.17 ± 0.17
same,Maximum %MPE reached,[4],100%
same,Influence of P-gp ablation on antinociceptive activity,[4],no significant influence
COc1ccc2c3c1O[C@H]1[C@@H](O)C=C[C@H]4[C@@H](C2)N(C)CC[C@@]341 [Codeine],Fold stimulation of basal P-gp-ATPase activity,recombinant human P-gp [1]; human,1.36 ± 0.07 ^b fold
same,Rate of ATP consumption versus non-treated control (significance),recombinant human P-gp [1]; human,significantly different (p < 0.05)
CCOC(=O)C1(c2ccccc2)CCN(C)CC1 [Meperidine],Intravenous to intraventricular ED10 ratio,[5],8.5
same,Fold stimulation of basal P-gp-ATPase activity,recombinant human P-gp [6],1.51 ± 0.29 fold
same,AUEC ratio mdr1a/b (−/−)/mdr1a/b (+/+),[4],1.14 ± 0.2
same,mdr1a/b (+/+) (AUEC),[4],6752.14 ± 917.94 %MPE × min
same,mdr1a/b (−/−) (AUEC),[4],7678.40 ± 851.59 %MPE × min
same,Influence of P-gp ablation on antinociceptive activity,[4],no significant influence
CN1CC[C@]23c4c5ccc(O)c4O[C@H]2[C@@H](O)C=C[C@H]3[C@H]1C5 [Morphine],%MPE reached,[7],~ 95 %MPE
C=CCN1CC[C@]23c4c5ccc(O)c4O[C@H]2C(=O)CC[C@@]3(O)[C@H]1C5 [Naloxone],Fold stimulation of basal P-gp-ATPase activity,recombinant human P-gp [1]; human,1.25 ± 0.11 fold
same,Stimulation of P-gp ATPase activity (significance),recombinant human P-gp [1]; human,did not significantly (p > 0.05) stimulate
CN1CC[C@]23c4c5ccc(O)c4O[C@H]2C(=O)CC[C@@]3(O)[C@H]1C5 [Oxymorphone],P-gp affinity status from P-gp ATPase assay,recombinant human P-gp [1],not to be P-gp substrates
same,Fold stimulation of basal P-gp-ATPase activity,recombinant human P-gp [1]; human,1.12 ± 0.12 fold
same,Stimulation of P-gp ATPase activity (significance),recombinant human P-gp [1]; human,did not significantly (p > 0.05) stimulate
same,Potency relative to morphine (times as potent),[8],approximately 10 times
